# Measured values reported in US4045298A, “Antibiotic XK-62-2 and process for production thereof” (priority 1972, dated 1977).
# Read-outs that look alike come from different tables or passages of the source.
# Columns and labels:
# [1] = test system: Pseudomonas aeruginosa KY 8520; assay: Minimum inhibitory concentration by agar dilution method; type: cell-based; conditions: KY8520, clinical isolate, Table 7
# Source text: (§1) Minimum inhibitory concentration
# (§2) (γ/ml : by agar dilution method)
# [2] = test system: Pseudomonas aeruginosa KY 8516; assay: as above; type: cell-based
# Source text: as §1, §2
# [3] = test system: Pseudomonas aeruginosa KY 8562; assay: as above; type: cell-based; conditions: KY8562, clinical isolate, Table 7
# Source text: as §1, §2
# [4] = test system: Pseudomonas aeruginosa KY 8515; assay: as above; type: cell-based; conditions: KY8515, clinical isolate, Table 7
# Source text: as §1, §2
# [5] = test system: Pseudomonas aeruginosa KY 8512; assay: as above; type: cell-based; conditions: KY8512, clinical isolate, Table 7
# Source text: as §1, §2
# [6] = test system: Pseudomonas aeruginosa KY 4276; assay: as above; type: cell-based; conditions: KY4276, clinical isolate, Table 7
# Source text: as §1, §2
# [7] = test system: Pseudomonas aeruginosa KY 8514; assay: as above; type: cell-based; conditions: KY8514, clinical isolate, Table 7
# Source text: as §1, §2
# [8] = test system: Pseudomonas aeruginosa KY 8511; assay: as above; type: cell-based; conditions: KY8511, clinical isolate, Table 7
# Source text: as §1, §2
# [9] = test system: Pseudomonas aeruginosa KY 8510; assay: as above; type: cell-based
# Source text: as §1, §2
# Solubility = type: physicochemical
# [10] = test system: Bacillus subtilis No. 10707; assay: Activity (unit/mg) of isolated preparations; paper disk method using an agar plate; type: cell-based
# Experimental: (§3) After the completion of fermentation, the culture liquor is adjusted to a pH of 2.0 with 12N sulfuric acid and stirred for 30 minutes. Then, about 10 kg of a filter aid, Radiolite No. 600 (product of Showa Kagaku Kogyo Co., Ltd., Japan) is added thereto and the microbial cells are removed by filtration. The filtrate is adjusted to a pH of 8.0 with 6N sodium hydroxide and passed through a column packed with about 50 l of a cation exchange resin, Amberlite IRC-50 (ammonia form). The active substance is adsorbed on the resin and the eluate is discarded. After washing the resin with water, the active substance is eluted out with 1N aqueous ammonia.
# Active fractions are combined and concentrated in vacuo to about 5 l. The concentrate is then adjusted to a pH of 8.0 with 6N sulfuric acid and passed through a column packed with 1 l of an anion exchange resin, Dowex 1×2 (OH^- form). The column is washed with about 5 l of water and the effluent and the washings containing active substance are combined and are concentrated to 1/15 by volume. […] The resultant precipitate is removed by filtration and the filtrate is concentrated to 500 ml. The concentrate is adjusted to a pH of 4.5 with 6N sulfuric acid and 2.5 l of methanol is added thereto. […] The precipitate is separated by filtration and washed with methanol.
# as §3, with “of” for “of a filter aid,”, “(trade name)” for “(product of Showa Kagaku Kogyo Co., Ltd., Japan)”, “The” for “The active substance is adsorbed on the resin and the”
# [11] = test system: Proteus vulgaris ATCC 6897; assay: Minimum inhibitory concentration by agar dilution method; type: cell-based; conditions: ATCC6897, agar dilution
# Source text: Antibacterial spectra of XK-62-2 by agar
# The comparative in vitro activities of these antibiotics against various microorganisms of the genus Proteus are shown in the following Table 6.
# as §1, §2
# [12] = test system: Klebsiella pneumoniae No. 8045; assay: In vivo activity against pathogenic bacterial infections in mice
# Source text: (§4) The in vivo activity of XK-62-2 against pathogenic bacterial infections in mice is further tested using various Gram-positive and Gram-negative bacteria. The mice are infected with an inoculum of the bacteria by intraperitonial injection and then treated with the test antibiotic by subcutaneous injection.
# [13] = test system: Diplococcus pneumoniae III; assay: as above
# Source text: as §4
# [14] = test system: Escherichia coli GN 2411-5; assay: as above
# Source text: as §4
# [15] = test system: Streptococcus pyogenes S23; assay: as above
# Source text: as §4
# Proteus mirabilis 1287 = assay: as above
# Source text: as §4
# [16] = test system: Staphylococcus aureus Smith; assay: as above
# Source text: as §4
# [17] = test system: Gram-positive and Gram-negative bacteria; assay: Antibacterial activity against Gram-positive and Gram-negative bacteria (summary); type: cell-based
# [18] = vs gentamicin complex or gentamicin C1a
smiles,measurement,setting,value
CNC[C@@H]1CC[C@@H](N)[C@@H](O[C@H]2[C@H](O)[C@@H](O[C@H]3OC[C@](C)(O)[C@H](NC)[C@H]3O)[C@H](N)C[C@@H]2N)O1 [XK-62-2],MIC,[1],0.33 µg/mL
same,Susceptibility of strain,[2]; KY 8516,sensitive
same,MIC,"[2]; Pseudomonas aeruginosa, KY8516, agar dilution, clinical isolate, Table 7",0.33 µg/mL
same,Antibacterial activity relative to gentamicin complex or gentamicin C1a,[2]; [18],much higher antibacterial activity
same,MIC,[3],> 42 µg/mL
same,MIC,[4],> 42 µg/mL
same,MIC,[5],0.33 µg/mL
same,MIC,[6],0.33 µg/mL
same,MIC,[7],0.55 µg/mL
same,MIC,[8],> 42 µg/mL
same,Susceptibility of strain,[9]; KY 8510,sensitive
same,MIC,"[9]; Pseudomonas aeruginosa, KY8510, agar dilution, clinical isolate, Table 7",0.33 µg/mL
same,Antibacterial activity relative to gentamicin complex or gentamicin C1a,[9]; [18],much higher antibacterial activity
same,Solubility in acetone,Solubility; acetone,soluble
same,"Solubility in chloroform, benzene, ethyl acetate, butyl acetate, ether, butanol, petroleum ether, n-hexane","Solubility; chloroform, benzene, ethyl acetate, butyl acetate, ether, butanol, petroleum ether, n-hexane, etc.",insoluble
same,Solubility in ethanol,Solubility; ethanol,soluble
same,Solubility in methanol,Solubility; methanol,soluble
same,Solubility in ordinary organic solvents,Solubility; ordinary organic solvents,poorly soluble
same,Solubility in water,Solubility; water,very soluble
same,Activity,"[10]; Example 1, purified preparate, free base",950 unit/mg
same,Activity,"[10]; Example 2, free base, Mm-628 ATCC 21827",932 unit/mg
same,Activity,"[10]; Example 3, purified preparate, free base",about 950 unit/mg
same,Activity,"[10]; Example 4, free base",900 unit/mg
same,Activity,"[10]; Example 5, free base",975 unit/mg
same,Activity,"[10]; Example 6, free base, Micromonospora purpurea ATCC 15835",925 unit/mg
same,Activity,"[10]; Example 7, free base, Micromonospora echinospora ATCC 15837 NRRL 2985",898 unit/mg
same,Activity,"[10]; Example 7, free base, Micromonospora echinospora var. ferruginea NRRL 2995",912 unit/mg
same,Activity,"[10]; Example 7, free base, Micromonospora echinospora var. pallida NRRL 2996",925 unit/mg
same,MIC,"[11]; Table 5, read-out: Minimum inhibitory concentration",0.03 µg/mL
same,MIC,"[11]; Table 6, read-out: Minimum inhibitory concentration",0.04 µg/mL
same,ED50,"[12]; Klebsiella pneumoniae, NO.8045, sc, subcutaneous, challenge inoculum 1.4×10^8 cells/mouse, read-out: Median effective dose [ED50]",5.7 ± 1.4 mg/kg
same,Ratio XK-62-2/gentamicin complex,[12]; ratio of ED50,0.74
same,ED50,"[13]; Streptococcus pneumoniae, sc, subcutaneous, challenge inoculum 4.4×10^3 cells/mouse, read-out: Median effective dose [ED50]",6.6 ± 1.9 mg/kg
same,Ratio XK-62-2/gentamicin complex,[13]; ratio of ED50,0.86
same,ED50,"[14]; Escherichia coli, GN2411, sc, subcutaneous, challenge inoculum 3.6×10^6 cells/mouse, read-out: Median effective dose [ED50]",10.8 ± 4.1 mg/kg
same,Ratio XK-62-2/gentamicin complex,[14]; ratio of ED50,1.01
same,ED50,"[15]; Streptococcus pyogenes, S23, sc, subcutaneous, challenge inoculum 2.7×10^7 cells/mouse, read-out: Median effective dose [ED50]",17.7 ± 4.8 mg/kg
same,Ratio XK-62-2/gentamicin complex,[15]; ratio of ED50,1.50
same,ED50,"Proteus mirabilis 1287; Proteus mirabilis, 1287, sc, subcutaneous, challenge inoculum 1.8×10^8 cells/mouse, read-out: Median effective dose [ED50]",10.4 ± 4.4 mg/kg
same,Ratio XK-62-2/gentamicin complex,Proteus mirabilis 1287; ratio of ED50,0.97
same,ED50,"[16]; Staphylococcus aureus, sc, subcutaneous, challenge inoculum 1.8×10^8 cells/mouse, read-out: Median effective dose [ED50]",0.28 ± 0.04 mg/kg
same,Ratio XK-62-2/gentamicin complex,[16]; ratio of ED50,1.33
same,Antibacterial activity,"[17]; both in vitro and in vivo, broad range of Gram-positive and Gram-negative bacteria",very strong antibacterial activity
same,In vitro activity relative to gentamicin,"[17]; in vitro, vs gentamicin",comparable
same,In vitro activity relative to streptomycin and kanamycin,"[17]; in vitro, vs streptomycin and kanamycin",far superior
